{
  "source": "patent US5369096A",
  "about": "“Glycolipid derivatives” (The Nisshin Oil Mills, Ltd., priority 1992, dated 1994)",
  "type_in_all_cases": "cell-based",
  "key": {"[1]": {"tested_on": "human normal lymphocytes adhering to vascular endothelial cells of the normal human umbilical cord", "assay": "inhibition of adhesion of human normal lymphocytes to rhIL1β-stimulated vascular endothelial cells, liposome dispersion", "details": "20 μg/ml equivalent; for Amount of human normal lymphocytes adhered (fluorescence intensity): rhIL1β 200 U/ml, 485 nm/535 nm", "description": "A solution of 200 μg of phosphatidylcholine, 100 μg of cholesterol, 7.5 μg of dicetyl phosphate and 50 μg of a compound of the invention in a mixture of chloroform/methanol=2/1 (ca. 1 ml) was evaporated under reduced pressure to dryness followed by addition of 0.25 ml of a phosphate-buffered saline solution. The mixture was ultrasonicated (an output of 90 watts) for 5 min. and stirred (a vortex mixer) for 5 min. to form a liposome dispersion.\n(§1) Vascular endothelial cells of the normal human umbilical cord grown to confluence were stimulated in 24-well plates with 200 U/ml of rhIL1β at 37° C. for 4 hours. After removal of the supernatant by suction, liposome dispersions each prepared from a compound of the invention in an amount of 20 μg/ml equivalent were added except for the rhIL1β-untreated group (sample 1) and the treated groups (samples 2 and 3). The mixtures were then allowed to react at room temperature for 30 min. Subsequently, human normal lymphocytes with 2',7'-bis-(carboxyethyl)-5,6-carboxyfluorescene acetoxymethyl ester fluorescent dye enclosed was added at a level of 2×10^6 cells per well followed by centrifugal operation at 100 rpm for 20 min. Each hole was washed three times followed by addition of 0.5 ml of 0.5% Triton X-100 and stirring. The contents were divided into 100 μl portions in 96-well plates and measurement was made on a Baxter fluorometer at 485 nm/535 nm.\n4: rhIL1β-treated group+compound 5A-containing liposome dispersion-treated group (2EG)\n5: rhIL1β-treated group+compound 5B-containing liposome dispersion-treated group (3EG)\n6: rhIL1β-treated group+compound 5C-containing liposome dispersion-treated group (4EG)\n7: rhIL1β-treated group+compound 5D-containing liposome dispersion-treated group (5EG)\nAmount adhered and % inhibition of adhesion of human normal lymphocytes as measured from fluorescence intensity are shown in Table 4 below."}, "[2]": {"tested_on": "human normal lymphocytes adhering to vascular endothelial cells of the normal human umbilical cord", "assay": "inhibition of adhesion of human normal lymphocytes to rhIL1β-stimulated vascular endothelial cells, oily emulsion", "details": "20 μg/ml equivalent; for Amount adhered (fluorescence intensity): rhIL1β 200 U/ml, 485 nm/535 nm", "description": "(§2) A mixed solution of 6 mg of egg yolk lecithin (manufactured by Nacalaitesque Inc.), 30 μl of soybean oil J. P. (manufactured by Yoshida Seiyaku), 470 μl of distilled water for injection (manufacturedby Otsuka Seiyaku) and 125 μg of a compound of the invention was ultrasonicated (an output of 90 watts) for 10 min. to prepare an oily emulsion. The oily emulsion was further passed through a polycarbonate membrane filter having 0.2 μm average pore diameter (manufactured by Millipore) to provide an average particle size of 0.2 μm.\nVascular endothelial cells of the normal human umbilical cord grown to confluence were stimulated in 24-well plates with 200 U/ml of rhIL1ββat 37° C. for 4 hours. After removal of the supernatant by suction, oily emulsions each prepared from a compound of the invention in an amount of 20 μg/ml equivalent were added except for the rhIL1β-untreated (Sample 1) and treated groups (Samples 2 and 3). The mixtures were then allowed to react at room temperature for 30 min. Subsequently, human normal lymphocytes with 2',7'-bis(carboxyethyl)-5,6-carboxyfluorescence acetoxymethyl ester fluorescent dye enclosed was added at a level of 2×10^6 cells per well followed by centrifugal operation at 100 rpm for 20 min. Each well was washed three times followed by addition of 0.5 ml of 0.5% Triton X-100 and stirring. The contents were divided into 100 μl portions in 96-well plates and measurement was made on a Baxter fluorometer at 485 nm/535 nm.\n4: rhIL1β-treated group+2→3 sialyl Lewis X-containing oily emulsion dispersion-treated group\n5: rhIL1β-treated group+compound 5E-containing oily emulsion dispersion-treated group (OEG)\n(§3) 6: rhIL1β-treated group+compound 5A-containing oily emulsion dispersion-treated group (2EG)\n(§4) 7: rhIL1β-treated group+compound 5B-containing oily emulsion dispersion-treated group (3EG)\n(§5) 8: rhIL1β-treated group+compound 5C-containing oily emulsion dispersion-treated group (4EG)\n(§6) 9: rhIL1β-treated group+compound 5D-containing oily emulsion dispersion-treated group (5EG)\nAmount adhered and percent inhibition of adhesion of human normal lymphocytes as measured from fluorescence intensity are shown in Table 5 below."}, "[3]": {"tested_on": "HL-60 cancer cells adhering to vascular endothelial cells of the normal human umbilical cord", "assay": "inhibition of adhesion of HL-60 cancer cells to rhIL1β-stimulated vascular endothelial cells, oily emulsion", "details": "20 μg/ml equivalent; for Amount of HL-60 cancer cells adhered (fluorescence intensity): rhIL1β 200 U/ml, 485 nm/535 nm", "description": "as §2\nas §1, with “oily emulsions” for “liposome dispersions”, “promyelocytic leukemia cell line HL-60” for “human normal lymphocytes”, “2',7'-bis(carboxyethyl)-5,6-carboxyfluorescene” for “2',7'-bis-(carboxyethyl)-5,6-carboxyfluorescene”, “1×10^6” for “2×10^6”, “well” for “hole”\n4: rhIL1β-treated group+2→3 sialyl Lewis X (natural type)-containing oily emulsion dispersion-treated group\n5: rhlL1β-treated group+compound 5E-containing oily emulsion dispersion-treated group (OEG)\nas §3, §4, §5, §6\n% inhibition of adhesion=100-[(fluorescence intensity for rhIL1β-treated group+compound-free or a compound-containing oily emulsion dispersion-treated group)-(fluorescence intensity for rhIL1β-untreated group)/(fluorescence intensity for rhIL1β-treated group-fluorescence intensity for rhIL1β-untreatedgroup)]×100"}},
  "data": [
    {"smiles": "CCCCCCCCCCCCCCC(CCCCCCCCCCCCCC)C(=O)Nc1ccc(COCCOCCOCCOCCOCCO[C@@H]2O[C@H](CO)[C@@H](O[C@@H]3O[C@H](CO)[C@H](O)[C@H](O[C@]4(C(=O)O)C[C@H](O)[C@@H](NC(C)=O)[C@H]([C@H](O)[C@H](O)CO)O4)[C@H]3O)[C@H](O[C@@H]3O[C@@H](C)[C@@H](O)[C@@H](O)[C@@H]3O)[C@H]2O)cc1", "note": "[Compound 5D, O-(5-acetamido-3,5-dideoxy-D-glycero-α-D-galacto-2-nonulopyranosylonic acid)-(2→3)-O-β-D-galactopyranosyl-(1→4)-[O-α-L-fucopyranosyl-(1→3)-O-β-D-glucopyranosyl]-(1→1)-5-O-para-(2-tetradecylhexadecanoyl)aminobenzyl-3,6,9,12-tetraoxatetradecane-1,14-diol]", "values": [
      {"measurement": "Amount of human normal lymphocytes adhered (fluorescence intensity)", "setting": "[1]", "value": 8817},
      {"measurement": "Amount adhered (fluorescence intensity)", "setting": "[2]", "value": 10324},
      {"measurement": "Amount of HL-60 cancer cells adhered (fluorescence intensity)", "setting": "[3]", "value": 2782}
    ]},
    {"smiles": "CCCCCCCCCCCCCCC(CCCCCCCCCCCCCC)C(=O)Nc1ccc(COCCOCCO[C@@H]2O[C@H](CO)[C@@H](O[C@@H]3O[C@H](CO)[C@H](O)[C@H](O[C@]4(C(=O)O)C[C@H](O)[C@@H](NC(C)=O)[C@H]([C@H](O)[C@H](O)CO)O4)[C@H]3O)[C@H](O[C@@H]3O[C@@H](C)[C@@H](O)[C@@H](O)[C@@H]3O)[C@H]2O)cc1", "note": "[Compound 5A, O-(5-acetamido-3,5-dideoxy-D-glycero-α-D-galacto-2-nonulopyranosylonic acid)-(2→3)-O-β-D-galactopyranosyl-(1→4)-[O-α-L-fucopyranosyl-(1→3)-O-β-D-glucopyranosyl]-(1→1)-5-O-para-(2-tetradecylhexadecanoyl)aminobenzyl-3-oxapentane-1,5-diol]", "values": [
      {"measurement": "Amount of human normal lymphocytes adhered (fluorescence intensity)", "setting": "[1]", "value": 6882},
      {"measurement": "% Inhibition of adhesion", "setting": "[1]; human normal lymphocytes", "value": 61.9, "unit": "%"},
      {"measurement": "% Inhibition of adhesion", "setting": "[2]", "value": 65.8, "unit": "%"},
      {"measurement": "Amount adhered (fluorescence intensity)", "setting": "[2]", "value": 9773},
      {"measurement": "Amount of HL-60 cancer cells adhered (fluorescence intensity)", "setting": "[3]", "value": 13287},
      {"measurement": "% Inhibition of adhesion", "setting": "[3]; HL-60 cells", "value": 65.3, "unit": "%"}
    ]},
    {"smiles": "CCCCCCCCCCCCCCC(CCCCCCCCCCCCCC)C(=O)Nc1ccc(COCCOCCOCCOCCO[C@@H]2O[C@H](CO)[C@@H](O[C@@H]3O[C@H](CO)[C@H](O)[C@H](O[C@]4(C(=O)O)C[C@H](O)[C@@H](NC(C)=O)[C@H]([C@H](O)[C@H](O)CO)O4)[C@H]3O)[C@H](O[C@@H]3O[C@@H](C)[C@@H](O)[C@@H](O)[C@@H]3O)[C@H]2O)cc1", "note": "[Compound 5C, O-(5-acetamido-3,5-dideoxy-D-glycero-α-D-galacto-2-nonulopyranosylonic acid)-(2→3)-O-β-D-galactopyranosyl-(1→4)-[O-α-L-fucopyranosyl-(1→3)-O-β-D-glucopyranosyl]-(1→1)-11-O-para-(2-tetradecylhexadecanoyl)aminobenzyl-3,6,9-trioxaundecane-1,11-diol]", "values": [
      {"measurement": "Amount of human normal lymphocytes adhered (fluorescence intensity)", "setting": "[1]", "value": 10513},
      {"measurement": "Amount adhered (fluorescence intensity)", "setting": "[2]", "value": 13563},
      {"measurement": "Amount of HL-60 cancer cells adhered (fluorescence intensity)", "setting": "[3]", "value": 6762}
    ]},
    {"smiles": "CCCCCCCCCCCCCCC(CCCCCCCCCCCCCC)C(=O)Nc1ccc(COCCOCCOCCO[C@@H]2O[C@H](CO)[C@@H](O[C@@H]3O[C@H](CO)[C@H](O)[C@H](O[C@]4(C(=O)O)C[C@H](O)[C@@H](NC(C)=O)[C@H]([C@H](O)[C@H](O)CO)O4)[C@H]3O)[C@H](O[C@@H]3O[C@@H](C)[C@@H](O)[C@@H](O)[C@@H]3O)[C@H]2O)cc1", "note": "[Compound 5B, O-(5-acetamido-3,5-dideoxy-D-glycero-α-D-galacto-2-nonulopyranosylonic acid)-(2→3)-O-β-D-galactopyranosyl-(1→4)-[O-α-L-fucopyranosyl-(1→3)-O-β-D-glucopyranosyl]-(1→1)-8-O-para-(2-tetradecylhexadecanoyl)aminobenzyl-3,6-dioxaoctane-1,8-diol]", "values": [
      {"measurement": "Amount of human normal lymphocytes adhered (fluorescence intensity)", "setting": "[1]", "value": 6993},
      {"measurement": "Amount adhered (fluorescence intensity)", "setting": "[2]", "value": 10045},
      {"measurement": "Amount of HL-60 cancer cells adhered (fluorescence intensity)", "setting": "[3]", "value": 6439}
    ]}
  ]
}
